Laboratory results taken from PubChem BioAssay AID256 (DTP/NCI, 2004).
Several values for one entry are separate records, joined by “and”; a condition that tells them apart may be missing. Equal values may be shown once. Inconclusive results and toxic doses are left out.

System: CD2F1 mice, L1210 leukemia ip, survival T/C
Assay: NCI In Vivo Anticancer Drug Screen. Data for tumor model L1210 Leukemia (intraperitoneal) in CD2F1 (CDF1) mice
Details: higher = longer survival
Outline: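 Compound-dosed mice with transplantable tumor versus matched vehicle controls; endpoint ratio T/C reported.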

[1] = endpoint: mean survival time, dose: 100.0 mg/kg/injection, schedule: Q01DX001 (ip), vehicle: saline
[2] = endpoint: mean survival time, dose: 200.0 mg/kg/injection, schedule: Q01DX001 (ip), vehicle: saline
[3] = endpoint: mean survival time, dose: 100.0 mg/kg/injection, schedule: Q04DX003 (ip), vehicle: saline with Tween-80
[4] = endpoint: mean survival time, dose: 200.0 mg/kg/injection, schedule: Q04DX003 (ip), vehicle: saline with Tween-80
[5] = endpoint: mean survival time, dose: 100.0 mg/kg/injection, schedule: Q01DX009 (ip), vehicle: saline with Tween-80
[6] = endpoint: mean survival time, dose: 200.0 mg/kg/injection, schedule: Q01DX009 (ip), vehicle: saline with Tween-80
[7] = endpoint: mean survival time, dose: 400.0 mg/kg/injection, schedule: Q01DX009 (ip), vehicle: saline with Tween-80
[8] = endpoint: mean survival time, dose: 100.0 mg/kg/injection, schedule: Q01DX009 (ip), vehicle: other
[9] = endpoint: mean survival time, dose: 200.0 mg/kg/injection, schedule: Q01DX009 (ip), vehicle: other
[10] = endpoint: mean survival time, dose: 400.0 mg/kg/injection, schedule: Q04DX003 (ip), vehicle: saline with Tween-80
[11] = endpoint: mean survival time, dose: 100.0 mg/kg/injection, schedule: Q01DX001 (ip), vehicle: saline with Tween-80
[12] = endpoint: mean survival time, dose: 200.0 mg/kg/injection, schedule: Q01DX001 (ip), vehicle: saline with Tween-80
[13] = endpoint: mean survival time, dose: 50.0 mg/kg/injection, schedule: Q01DX009 (ip), vehicle: saline with Tween-80

In the case of `COCCNC(=S)SCCN(C(C)C)C(C)C`, the T/C (endpoint: mean survival time, dose: 100.0 mg/kg/injection, schedule: Q01DX001 (sc), vehicle: olive oil, sesame oil, peanut oil) is reported as 110 % of control.

For `Nc1ncnc2nc[nH]c12`, the T/C (endpoint: median survival time, dose: 70.0 mg/kg/injection, schedule: Q01DX009 (ip), vehicle: acid diluted with saline) was 98 % of control, the T/C (endpoint: median survival time, dose: 70.0 mg/kg/injection, schedule: Q01DX009 (ip), vehicle: other) was 109 % of control and the T/C (endpoint: median survival time, dose: 80.0 mg/kg/injection, schedule: Q01DX009 (ip), vehicle: acid diluted with saline) was 103 % of control. For the same compound, the T/C (endpoint: median survival time, dose: 80.0 mg/kg/injection, schedule: Q01DX009 (ip), vehicle: other) was 112 % of control, the T/C (endpoint: median survival time, dose: 90.0 mg/kg/injection, schedule: Q01DX009 (ip), vehicle: acid diluted with saline) was 101 % of control and the T/C (endpoint: median survival time, dose: 90.0 mg/kg/injection, schedule: Q01DX009 (ip), vehicle: other) was 106 % of control.

`COC(=O)C(C)C1CCC2C3=CC=C4CC(OC(C)=O)CCC4(C)C3=CCC21C` (centres undefined) was tested, and the T/C (endpoint: mean survival time, dose: 100.0 mg/kg/injection, schedule: Q01DX001 (ip), vehicle: Klucel (hydroxypropylcellulose) (HPC)) was 98 % of control, the T/C (endpoint: mean survival time, dose: 200.0 mg/kg/injection, schedule: Q01DX001 (ip), vehicle: Klucel (hydroxypropylcellulose) (HPC)) was 92 % of control and the T/C (endpoint: mean survival time, dose: 400.0 mg/kg/injection, schedule: Q01DX001 (ip), vehicle: Klucel (hydroxypropylcellulose) (HPC)) was 92 % of control.

For `CN(C)/N=C(\CBr)c1ccc([N+](=O)[O-])cc1`, the T/C [1] was 100 % of control and the T/C [2] was 94 % of control.

With `Cc1ccc2ncccc2c1[N+](=O)[O-]` the T/C [3] was 101 % of control and the T/C [4] was 95 % of control.

`Cc1cc(O)c(C(C)C)cc1N(C)C` (tested in a mixture with another compound) was tested, and the T/C (endpoint: mean survival time, dose: 0.13 mg/kg/injection, schedule: Q01DX009 (ip), vehicle: saline) was 100 % of control, the T/C (endpoint: mean survival time, dose: 0.25 mg/kg/injection, schedule: Q01DX009 (ip), vehicle: saline) was 106 % of control and the T/C (endpoint: mean survival time, dose: 0.25 mg/kg/injection, schedule: Q04DX003 (ip), vehicle: saline) was 110 % of control. The T/C (endpoint: mean survival time, dose: 0.5 mg/kg/injection, schedule: Q01DX001 (ip), vehicle: saline) was 97 % of control, the T/C (endpoint: mean survival time, dose: 0.5 mg/kg/injection, schedule: Q01DX009 (ip), vehicle: saline) was 93 % of control and the T/C (endpoint: mean survival time, dose: 0.5 mg/kg/injection, schedule: Q04DX003 (ip), vehicle: saline) was 87 % of control. The T/C (endpoint: mean survival time, dose: 1.0 mg/kg/injection, schedule: Q01DX001 (ip), vehicle: saline) was 97 % of control.

For `CN(C)S(=O)(=O)Oc1ccccc1[N+](=O)[O-]`, the T/C [5] was 100 % of control, the T/C [6] was 97 % of control and the T/C [7] was 98 % of control.

`CCC1=[N+]([O-])[N+]([O-])=C(c2ccccc2)C1=O` was tested, and the T/C (endpoint: mean survival time, dose: 50.0 mg/kg/injection, schedule: Q01DX009 (ip), vehicle: other) was 93 % of control, the T/C [8] was 101 % of control and the T/C [9] was 93 % of control.

`O=C(c1ccccc1)N(N=C(c1ccc([N+](=O)[O-])cc1)c1ccc([N+](=O)[O-])cc1)c1ccccc1` was tested, and the T/C [3] was 93 % of control and the T/C [10] was 87 % of control.

With `O=P(O)(O)CCc1ccccc1` the T/C (endpoint: mean survival time, dose: 50.0 mg/kg/injection, schedule: Q04DX003 (ip), vehicle: saline) was 95 % of control, the T/C (endpoint: mean survival time, dose: 100.0 mg/kg/injection, schedule: Q04DX003 (ip), vehicle: saline) was 90 % of control and the T/C (endpoint: mean survival time, dose: 200.0 mg/kg/injection, schedule: Q04DX003 (ip), vehicle: saline) was 96 % of control.

In the case of `O=C(O)C(O)(O)C(=O)O`, the T/C [11] is reported as 102 % of control, the T/C [12] is reported as 102 % of control and the T/C (endpoint: mean survival time, dose: 400.0 mg/kg/injection, schedule: Q01DX001 (ip), vehicle: saline with Tween-80) is reported as 102 % of control.

In the case of `CCCCN(CCCC)C(Cl)=Nc1ccccc1`, the T/C (endpoint: mean survival time, dose: 6.25 mg/kg/injection, schedule: Q01DX009 (ip), vehicle: Klucel (hydroxypropylcellulose) (HPC)) is reported as 95 % of control and 105 % of control, the T/C (endpoint: mean survival time, dose: 12.5 mg/kg/injection, schedule: Q01DX009 (ip), vehicle: Klucel (hydroxypropylcellulose) (HPC)) is reported as 92 % of control and 104 % of control and the T/C (endpoint: mean survival time, dose: 25.0 mg/kg/injection, schedule: Q01DX009 (ip), vehicle: Klucel (hydroxypropylcellulose) (HPC)) is reported as 94 % of control and 95 % of control. For the same compound, the T/C (endpoint: mean survival time, dose: 50.0 mg/kg/injection, schedule: Q01DX009 (ip), vehicle: Klucel (hydroxypropylcellulose) (HPC)) was 94 % of control and 95 % of control, the T/C (endpoint: mean survival time, dose: 100.0 mg/kg/injection, schedule: Q01DX009 (ip), vehicle: Klucel (hydroxypropylcellulose) (HPC)) was 93 % of control and the T/C (endpoint: mean survival time, dose: 200.0 mg/kg/injection, schedule: Q01DX009 (ip), vehicle: Klucel (hydroxypropylcellulose) (HPC)) was 90 % of control.

With `CC1=C(CCC#N)C(=O)C(CCC#N)C(C)(C)C1` (centres undefined) the T/C (endpoint: mean survival time, dose: 100.0 mg/kg/injection, schedule: Q04DX002 (ip), vehicle: saline with Tween-80) was 94 % of control and the T/C (endpoint: mean survival time, dose: 200.0 mg/kg/injection, schedule: Q04DX002 (ip), vehicle: saline with Tween-80) was 89 % of control.

`ClCCN(CC#CCCCC#CCN(CCCl)CCCl)CCCl` was tested, and the T/C (endpoint: mean survival time, dose: 3.12 mg/kg/injection, schedule: Q01DX009 (ip), vehicle: saline) was 121 % of control, the T/C (endpoint: mean survival time, dose: 6.25 mg/kg/injection, schedule: Q01DX009 (ip), vehicle: saline) was 119 % of control and 121 % of control and the T/C (endpoint: mean survival time, dose: 25.0 mg/kg/injection, schedule: Q01DX009 (ip), vehicle: saline) was 162 % of control. For the same compound, the T/C (endpoint: mean survival time, dose: 50.0 mg/kg/injection, schedule: Q01DX009 (ip), vehicle: saline) was 89 % of control and 104 % of control.

With `O=C(O)c1ccccc1C(Br)C(Br)c1ccccc1` (centres undefined) the T/C [3] was 101 % of control, the T/C [4] was 98 % of control and the T/C [10] was 106 % of control.

With `COC(=O)/C=C/c1ccc(OC(=O)c2ccccc2)cc1` the T/C [5] was 95 % of control, the T/C [6] was 96 % of control and the T/C [7] was 98 % of control.

In the case of `Cc1cc(C)c(C#[N+][O-])c(C)c1`, the T/C (endpoint: mean survival time, dose: 12.5 mg/kg/injection, schedule: Q01DX009 (ip), vehicle: saline with Tween-80) is reported as 97 % of control, the T/C (endpoint: mean survival time, dose: 25.0 mg/kg/injection, schedule: Q01DX009 (ip), vehicle: saline with Tween-80) is reported as 94 % of control and the T/C [13] is reported as 91 % of control.

`CNc1ncn(-c2c(C)cccc2C)c(=O)n1` was tested, and the T/C (endpoint: median survival time, dose: 3.12 mg/kg/injection, schedule: Q01DX005 (ip), vehicle: Klucel (hydroxypropylcellulose) (HPC)) was 101 % of control, the T/C (endpoint: median survival time, dose: 6.25 mg/kg/injection, schedule: Q01DX005 (ip), vehicle: Klucel (hydroxypropylcellulose) (HPC)) was 97 % of control and the T/C (endpoint: median survival time, dose: 12.5 mg/kg/injection, schedule: Q01DX005 (ip), vehicle: Klucel (hydroxypropylcellulose) (HPC)) was 102 % of control. For the same compound, the T/C (endpoint: median survival time, dose: 25.0 mg/kg/injection, schedule: Q01DX005 (ip), vehicle: Klucel (hydroxypropylcellulose) (HPC)) was 100 % of control, the T/C (endpoint: median survival time, dose: 50.0 mg/kg/injection, schedule: Q01DX005 (ip), vehicle: Klucel (hydroxypropylcellulose) (HPC)) was 108 % of control and the T/C (endpoint: median survival time, dose: 50.0 mg/kg/injection, schedule: Q01DX005 (ip), vehicle: saline with Tween-80) was 119 % of control and 98 % of control and 102 % of control. The T/C (endpoint: median survival time, dose: 100.0 mg/kg/injection, schedule: Q01DX005 (ip), vehicle: saline with Tween-80) was 123 % of control and 98 % of control and 110 % of control and the T/C (endpoint: median survival time, dose: 200.0 mg/kg/injection, schedule: Q01DX005 (ip), vehicle: saline with Tween-80) was 122 % of control and 107 % of control.

For `CCCCCCCCCCCC(=O)NC(=S)Nc1cccc(C(F)(F)F)c1`, the T/C [8] was 95 % of control, the T/C [9] was 103 % of control and the T/C (endpoint: mean survival time, dose: 400.0 mg/kg/injection, schedule: Q01DX009 (ip), vehicle: other) was 103 % of control.

With `ClCCCN1CCN(CCCl)CC1` the T/C (endpoint: median survival time, dose: 2.5 mg/kg/injection, schedule: Q01DX009 (ip), vehicle: saline) was 113 % of control and 115 % of control, the T/C (endpoint: median survival time, dose: 10.0 mg/kg/injection, schedule: Q01DX009 (ip), vehicle: saline) was 155 % of control and 177 % of control and 209 % of control and the T/C (endpoint: median survival time, dose: 20.0 mg/kg/injection, schedule: Q01DX009 (ip), vehicle: saline) was 109 % of control. For the same compound, the T/C (endpoint: median survival time, dose: 40.0 mg/kg/injection, schedule: Q01DX009 (ip), vehicle: saline) was 88 % of control and 90 % of control.

With `CC(C)(C)N1OC1c1ccccc1` (centres undefined) the T/C [1] was 103 % of control, the T/C [2] was 105 % of control and the T/C (endpoint: mean survival time, dose: 400.0 mg/kg/injection, schedule: Q01DX001 (ip), vehicle: saline) was 97 % of control.

`CC(=O)Nc1ccc(/C=N/NC(=O)CNC(=O)NCc2ccco2)cc1` was tested, and the T/C [13] was 96 % of control, the T/C [5] was 92 % of control and the T/C [6] was 94 % of control.

In the case of `COc1cc(/C=C\[N+](=O)[O-])c([N+](=O)[O-])cc1OCc1ccccc1`, the T/C [11] is reported as 94 % of control and the T/C [12] is reported as 97 % of control.
